Measurements taken from US20140248411A1, “SWEETNESS ENHANCER” (KOREA FOOD RESEARCH INSTITUTE, priority 2011, published 2014).

Experiments:
Type in all cases: in vivo
[1] = Sensory evaluation, sweet taste enhancement of LHe with sodium cyclamate (15-point scale)
Procedure: In order to verify specificity of the sweet taste enhancement effect of LHe, a sweetener except sucrose was used as a sweet taste reference sample. […] In the experiment, panels well trained in the basic tastes participated, and the presented samples were maintained at room temperature. After having a taste of the reference sample, the mouth was rinsed with water, and then after having a taste of the sample, intensity of each basic taste was evaluated.
In order to verify specificity of the sweet taste enhancement effect of LHe, a sweetener, except sucrose, was used as a sweet taste reference sample.

[2] = Sensory evaluation on Met-Asn peptide
Procedure: Sensory evaluation was conducted to validate the role of Met-Asn peptide itself, without sugar binding thereto, on the sweetening effect. […] When a Met-Asn peptide+5% sucrose solution was presented as a sample, the sweet taste intensity thereof was 5.00±0.23, which was not shown to have a significant difference from that of the 5% sucrose solution. […] Accordingly, the sweetness effect of the fraction containing the Met-Asn peptide may be due to the sugar structure binding.

[3] = Sensory evaluation, sweet taste enhancement of LHe with sucrose (15-point scale)
Procedure: In order to more accurately verify the sweet taste enhancement effect of LHe, 2, 5, 10, and 15% sucrose solutions were used as sweet taste reference samples. An LHe solution (300 μg/mL) and an LHe+5% sucrose solution were presented as samples, and sweet taste intensities thereof were measured by a 15-point scale method. Here, the sweet taste intensities of sweet taste reference samples, 2, 5, 10, and 16% sucrose solutions were presented to be 2, 5, 10, and 15 points, respectively, according to the method of Meilgaard et al.
In order to more accurately verify the sweet taste enhancement effect of LHe, 2, 5, 10, and 15% sucrose solutions were used as sweet taste reference samples. A 300 μg/mL LHe solution and a 300 μg/mL LHe+5% sucrose solution were presented as samples, and sweet taste intensities thereof were measured by a 15-point scale method. Here, the sweet taste reference samples, 2, 5, 10, and 16% sucrose solutions were respectively presented to be 2, 5, 10, and 15 points according to the method of Meilgaard et al. (1987).

**Q.** For `O=S(=O)(O)NC1CCCCC1` [cyclamate, sodium cyclamate], which sweet taste intensity ([1]; 0.056% cyclamate reference sample) is on record?
**A.** 2.00±0.00

**Q.** What about the sweet taste intensity ([1]; 0.14% cyclamate reference sample) of the same compound?
**A.** 5.00±0.00

**Q.** With Met-Asn [Met-Asn peptide] as the compound, how does the sweet taste intensity ([2]; Met-Asn peptide + 5% sucrose solution) read?
**A.** 5.00±0.23

**Q.** What about the sweet taste intensity ([2]; Met-Asn peptide itself, without sugar binding) of the same compound?
**A.** 0.13±0.04

**Q.** For `OC[C@H]1O[C@@](CO)(O[C@H]2O[C@H](CO)[C@@H](O)[C@H](O)[C@H]2O)[C@@H](O)[C@@H]1O` [sucrose], which sweet taste intensity ([2]; 5% sucrose reference sample) is on record?
**A.** 5.00±0.00

**Q.** And the sweet taste intensity ([3]; 2% sucrose reference sample)?
**A.** 2.00±0.00

**Q.** And the sweet taste intensity ([3]; 5% sucrose reference sample)?
**A.** 5.00±0.00
